Earlier results as cited in patent US20180271820A1, “METHODS OF TREATING HEART FAILURE” (priority 2015, published 2018).
Where a name gives a salt, the structure may show the parent alone.

Columns and labels:
[1] = cited from earlier work
[2] = test system: patients; settings: 120 mg, 240 mg, daily, BID, and TID; cited from earlier work
[3] = test system: Ehrlich ascites tumor; settings: mice; cited from earlier work
[4] = test system: patients with preserved EF; settings: GISSI-HF, rosuvastatin or placebo; cited from earlier work
[5] = test system: patients with symptomatic heart failure and a preserved ejection fraction; settings: 3,445 patients, TOPCAT trial; cited from earlier work
[6] = test system: HFPEF patients; settings: RELAX trial; cited from earlier work

COC(=O)/C=C/C(=O)OC [DMF, dimethyl fumarate]
aqueous solubility [1]: poor | side effect profile across dosages [2]: similar

O=C(O)/C=C/C(=O)O [Fumaric acid]
growth of the Ehrlich ascites tumor [3]: inhibits the growth

CC(C)c1nc(N(C)S(C)(=O)=O)nc(-c2ccc(F)cc2)c1/C=C/[C@@H](O)C[C@@H](O)CC(=O)O [rosuvastatin]
benefit in subgroup of patients with preserved EF [4]: no benefit

CC(=O)S[C@@H]1CC2=CC(=O)CC[C@]2(C)[C@H]2CC[C@@]3(C)[C@@H](CC[C@@]34CCC(=O)O4)[C@H]12 [spironolactone]
incidence of primary composite outcome of death from cardiovascular causes, cardiac arrest, or hospitalization for heart failure [5]: did not significantly reduce

CCCc1nn(C)c2c(=O)[nH]c(-c3cc(S(=O)(=O)N4CCN(C)CC4)ccc3OCC)nc12 [sildenafil]
primary outcome of functional capacity [6]: did not impact
